Measurements reported in patent US20130295669A1, “METHOD FOR CONTROLLING BINDING OF CELLS TO A SUBSTRATE” (LONZA COLOGNE GMBH, priority 2010, published 2013).

Columns and labels:
[1] = tested on: human Embryonic Stem Cells (hESCs); test: Post-split attachment of hESCs on Matrigel-coated dishes in X-VIVO medium; format: cell-based
Procedure: The cells were cultured in defined X-VIVO medium containing no serum or animal-derived components on culture dishes coated with Matrigel®. A: No treatment with inhibitor (control), B: Transient treatment with 10 μM Blebbistatin (left micrograph: 4-fold magnification, right micrograph: 10-fold magnification), C: Culture 1 day after withdrawal of Blebbistatin. The post-split attachment of hESCs in X-VIVO has been low (A: 5-15%). When the culture was split (EDTA passage), the medium was supplemented with 10 μM of Blebbistatin. This increased the attachment of hESCs dramatically (B: 80-95%) compared to the post-split attachment of Blebbistatin-free hESC culture in X-VIVO. In fact, even the individualized hESCs attached very well. The media of the culture was replaced after 24 h with Blebbistatin-free X-VIVO to see how the cells stay attached and proliferate without Blebbistatin.

[2] = tested on: mesenchymal stem cells from bone marrow (BM-MSC); test: BM-MSCs seeded on microcarriers for suspension culture; format: cell-based
Procedure: BM-MSCs were seeded on microcarriers for suspension culture in presence or absence of 10 μM Blebbistatin and allowed to proliferate for 6 days. After 24 h incubation without agitation the culture was sampled to determine cell count, Glucose consumption and cell seeding. After 5 additional days of incubation with agitation Glucose consumption (A), Lactate production (B), cell count (C) and cell seeding on carriers (DAPI-stain of cells on carrier, FIG. 11) were determined again. […] Accordingly, Blebbistatin has a protective effect on the cells resulting in enhanced proliferation after 6 days growth on microcarriers.

[3] = tested on: mesenchymal stem cells from bone marrow (BM-MSCs); test: Apoptosis by Annexin V staining and FACS; format: cell-based
Procedure: (§1) Cell aggregation (A), cell survival (B) and apoptosis (C) were assayed in presence or absence of different Blebbistatin concentrations up to seven days. ROCK inhibitor (Y-27532) was used as a positive control. Cells were added to deep-wells not supporting adherent growth. Different concentrations of Blebbistatin and Y-27632 were tested in suspension (deep-well, 130 RPM) and adhesion (six-well) culture on BM-MSCs (media containing 10% FBS).
(§2) B: Live cells were quantified by FACS using dye-exclusion assay (propidium iodide). […] The survival-enhancing effect of Blebbistatin appeared concentration dependent peaking at 10 μM and decreasing at both higher and lower concentrations of Blebbistatin. C: Apoptotic cells were quantified by FACS using Annexin V-assay (propidium iodide).

[4] = tested on: BM-MSCs; test: Attachment of BM-MSCs to hydrophobic side of Lumox-biofoil bag; format: cell-based; conditions: 10 μM, 48 h treatment
Procedure: Colony and attached cells observed after 48 h treatment with <0.1% DMSO are shown. No significant attachment of cells could be observed.
Colony and attached cells observed after 48 h treatment with 10 μM Blebbistatin are shown. […] Thus, if compared to FIG. 6 (control), treatment with Blebbistatin results in an increased affinity of BM-MSCs to this surface.

[5] = tested on: human embryonal stem cells (hEST); test: Cryopreservation recovery of human embryonal stem cells; format: cell-based
Description: Usually only cell clusters can be cryopreserved, but not single ES cells.
Moreover, adding Blebbistatin before freezing is beneficial for cryopreserving single hESCs.

[6] = tested on: stem cells from cord blood (CB-USSCs); test: CB-USSCs on PTFE vessel material; format: cell-based; conditions: 10 μM, 3 days on PTFE-vessel material
Procedure: USSCs were cultured with 10 μM Bb for 3 days on repellent PTFE-vessel material compared to control cultures.

[7] = tested on: mesenchymal stem cells from bone marrow (BM-MSCs); test: Cell aggregation of BM-MSCs in suspension (deep-well) culture; format: cell-based; conditions: for cell clustering: suspension deep-well
Procedure: as §1, §2

[8] = tested on: stem cells from cord blood (CB-USSC); test: CB-USSC attachment and proliferation on repellent Teflon foil; format: cell-based; conditions: 10 μM
Procedure: USSCs were cultured with 10 μM Bb for 4 days on repellent Teflon® foil and the cells attached to the foil were counted on day 4. Bars represent the number of cells per well. Control cultures: CB-USSCs in DMSO or PBS without inhibitor. […] Thus, CB-USSCs attach and proliferate on Teflon® foil.
USSCs were cultured with 10 μM Bb on repellent Teflon® foil until confluency was reached, the cells attached to the foil were counted on day 6 after cell seeding. Bars represent the number of cells per well. Control cultures: CB-USSCs in DMSO or PBS without inhibitor.
USSCs were cultured with 10 μM Bb on repellent Teflon® foil dish and counted on day 4 after cell seeding. Bars represent the number of cells per well. Control cultures: CB-USSCs in DMSO or PBS without inhibitor. […] USSC attachment and proliferation on Teflon® foil in serum-reduced (EGM2) media is enhanced by myosin inhibition.
USSCs were cultured with 10 μM Bb on repellent Teflon® foil dish and counted on day 4 after cell seeding. Bars represent the number of cells per well. Control cultures: CB-USSCs in DMSO or PBS without inhibitor.

[9] = tested on: mesenchymal stem cells from bone marrow (BM-MSC); test: BM-MSC attachment and proliferation on repellent Teflon foil; format: cell-based; conditions: 10 μM
Procedure: MSCs were cultured with 10 μM Bb for 4 days on repellent Teflon® foil and the cells attached to the foil were counted on day 4. Bars represent the number of cells per well. Control cultures: BM-MSCs in DMSO or PBS without inhibitor. […] Thus, BM-MSCs attach and proliferate on Teflon® foil.
MSCs were cultured with 10 μM Bb on repellent Teflon® foil until confluency was reached, the cells attached to the foil were counted on day 6 after cell seeding. Bars represent the number of cells per well. Control cultures: BM-MSCs in DMSO or PBS without inhibitor.

[10] = tested on: BM-MSC cultures; test: Cell cycle profiles (G1/G0 and G2) by propidium iodide FACS with continuous BrdU incorporation; format: cell-based; conditions: suspension/shaking culture in deep-wells, up to 3 days
Description: BM-MSC cultures were allowed to incorporate BrdU continuously and were sampled at different points of time (up to 3 days). Most cells are in G1/G0 phase (very dense culture), but there are also some G2-cells present. Absence of >4N cells (no multinucleated cells detected).
BM-MSC cultures were allowed to incorporate BrdU continuously and were sampled at different points of time (up to 3 days). Most cells are in G1/G0 phase (very dense culture), but there are also G2-cells present. Absence of >4N cells (no multinucleated cells detected). During continuous treatment in adherent T-flasks culture (G2/M) slight slowing down of the cell cycle was observed.

[11] = tested on: mesenchymal stem cells from bone marrow (BM-MSC); test: Dislocation of BM-MSCs with Trypsin/EDTA after pretreatment, and reseeding; format: cell-based; conditions: for effect against cell dislocation and clumping: 3 min Trypsin/EDTA; for cell proliferation (yield and viability) after reseeding: pretreatment before dislocation, 7 days in drug-free medium, 5000 cells/cm^2
Procedure: Subconfluent BM-MSCs were subjected to 4 h pretreatment (10 μM Blebbistatin or 10 μM Y-27632 vs control) and subsequent incubation for 3 min. with Trypsin/EDTA at 37° C. Cell counts were determined after dislocation of the cells from the surface of tissue culture flasks without specific coating (A). […] Dislocated cells are devoid of aggregates in drug-treated condition. […] Cells were reseeded (all conditions at same density: 5000 cells/cm^2) and cultured for additional 7 days in drug-free medium. After 7 days cell counts (B) and viability (C) were determined. […] An increase in cell proliferation (yield and viability) by Blebbistatin and less for Y-27632 treatment before dislocation in the subsequent drug-free passage (day 7) was also observed.

[12] = tested on: mesenchymal stem cells from bone marrow (BM-MSCs); format: cell-based
Procedure: as §1, with “FBS). […] B: Live cells were quantified by FACS using dye-exclusion assay (propidium iodide). […] The survival-enhancing effect of Blebbistatin appeared concentration dependent peaking at 10 μM and decreasing at both higher and lower concentrations of Blebbistatin. C: Apoptotic cells were quantified by FACS using Annexin V-assay (propidium iodide).” for “FBS).”

[13] = tested on: human pluripotent stem cells; conditions: clonal density and suspension conditions; cited from earlier work
[14] = deep well culture, up to seven days, overall statement

Cc1ccc2c(c1)C(=O)C1(O)CCN(c3ccccc3)C1=N2 (stereo not drawn) [Blebbistatin]
post-split attachment of hESCs ([1]; 10 μM, EDTA passage, X-VIVO medium, Matrigel): 80-95%
attachment and proliferation after withdrawal of Blebbistatin ([1]; medium replaced after 24 h, 1 day after withdrawal): no significant changes could be observed
cell seeding on microcarriers ([2]; 10 μM, after 24 h without agitation): markedly increased
Glucose consumption ([2]; 10 μM, after 6 days): no effect
Lactate production ([2]; 10 μM, after 6 days): no effect
cell number ([2]; 10 μM, after 6 days on microcarriers): significantly increased
cells adhering to microcarriers (DAPI-stain micrographs) ([2]; after 6 days of incubation): much more cells adhere to the microcarriers
concentration of greatest anti-apoptotic effect [3]: 10 µM
apoptotic cells (Annexin V-assay) ([3]; 10 μM, versus DMSO, PBS controls): protected against apoptosis
anti-apoptotic effect ([3]; below 5 μM): merely a limited effect
apoptosis [3, 14]: decreases apoptosis
cell death in suspension culture (AnnexinV staining) ([3]; suspension/shaking conditions): eliminates cell death in suspension culture
anti-apoptotic effect relative to Y-27632 ([3]; various inhibitor concentrations): comparable or stronger than that of Y-27632
cells attached to hydrophobic surface [4]: A significant number of cells is attached
cryopreservation recovery of single hESCs [5]: increases the cryopreservation recovery of single hESCs to the comparable level of the recovery of hESC clusters
effect of adding before freezing on cryopreserving single hESCs ([5]; added before freezing): beneficial
cell spreading and aggregate formation [6]: Markedly enhanced cell spreading but no aggregate formation
cell clustering ([7]; 10 μM): prevents cell clustering
cell aggregation [7, 14]: prevents or at least greatly reduces cell aggregation
cell clustering ([7]; less than 10 μM): formed a single aggregate
cell yield (cells attached to foil per well) ([8]; day 4): highly significant increase in cell yield
proliferation (cells per well) ([8]; day 4, low serum EGM2+Dex-media (3% serum)): significantly enhanced proliferation
cell yield (cells per well) ([8]; day 4, serum-free MSCGM-CD medium): No apparent increase in cell yield
confluency on Teflon foil ([8]; day 6): form confluent layers
cell yield (cells attached to foil per well) ([8]; day 6 after cell seeding): significant increase in cell yield
cell yield (cells attached to foil per well) ([9]; day 4): significant increase in cell yield
confluency on Teflon foil ([9]; day 6): do not form a completely confluent layer
cell yield (cells attached to foil per well) ([9]; day 6 after cell seeding): No differences in cell yield
effect on cell cycle [10]: no significant effect
effect against cell dislocation and clumping ([11]; 10 μM, 4 h pretreatment): protective effects against cell dislocation and clumping
cell counts dislocated from tissue culture flasks ([11]; 10 μM, 4 h pretreatment, 3 min Trypsin/EDTA at 37° C.): Fewer cells are dislocated
cell proliferation (yield and viability) after reseeding [11]: enhanced proliferation and viability
optimum concentration for eliminating cell death [12]: 10 µM
cell survival [12, 14]: enables cell survival
cell death rates (propidium iodide, FACS) ([12]; especially at 10-50 μM, adhesive/static or suspension/shaking): significantly eliminates cell death
concentration at which survival-enhancing effect peaks ([12]; suspension, decreasing at higher and lower concentrations): 10 µM
survival rate of human pluripotent stem cells [13]: increases the survival rate

C[C@@H](N)[C@H]1CC[C@H](C(=O)Nc2ccncc2)CC1 [Y-27632]
effect against cell dislocation and clumping ([11]; 10 μM, 4 h pretreatment): protective effects against cell dislocation and clumping
cell proliferation (yield and viability) after reseeding [11]: less
